Results on one cell line are retold here after the supplement of paper PMC10307832.

Assay in all cases: relative viability (nuclei count vs DMSO), 5 days (fraction); higher = more cells survive
Compound in test [1]: O[C@@H](COc1cccc2ncccc12)CN1CCN([C@@H]2c3ccccc3[C@@H]3[C@H](c4ccccc42)C3(F)F)CC1 [Zosuquidar] + CC1(C)CCC(c2ccc(Cl)cc2)=C(CN2CCN(c3ccc(C(=O)NS(=O)(=O)c4ccc(N[C@H](CCN5CCOCC5)CSc5ccccc5)c(S(=O)(=O)C(F)(F)F)c4)cc3)CC2)C1 [Navitoclax] (partner 0.5 µM)
In short, it runs like this:
(§1)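 Each reported value is a median over duplicate plates. It expresses relative viability: treated-well nuclei count divided by vehicle-well nuclei count. Lung cancer cell lines in 1536-well plates were dosed by pin tool a day after seeding, alone with one drug or with a fixed anchor-drug dose plus five library-drug doses (not always all listed) in √10 steps, and nuclei were counted after 5 days.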

Compound in test [2]: O[C@@H](COc1cccc2ncccc12)CN1CCN([C@@H]2c3ccccc3[C@@H]3[C@H](c4ccccc42)C3(F)F)CC1 [Zosuquidar] + O=C(CCCCCCC(=O)Nc1ccccc1)NO [Vorinostat] (partner 1 µM)
In outline:
as §1

Compound in test [3]: COc1cc2nccc(Oc3ccc(NC(=O)C4(C(=O)Nc5ccc(F)cc5)CC4)cc3)c2cc1OC [Cabozantinib] + CC(=O)Nc1cccc(-n2c(=O)n(C3CC3)c(=O)c3c(Nc4ccc(I)cc4F)n(C)c(=O)c(C)c32)c1 [Trametinib] (partner 0.02 µM)
In short, it runs like this:
as §1

Compound in test [4]: C1=CC(=CC=C1NC(=S)NNC2=C(C=C(C=C2[N+](=O)[O-])C(F)(F)F)[N+](=O)[O-])F [Kobe2602] + C[C@]1(O)C[C@@H](c2nc(-c3ccc4ccc(-c5ccccc5)nc4c3)c3c(N)nccn32)C1 [Linsitinib] (partner 1 µM)
In outline: as §1

For UMC-11, the relative viability in test [1] (first compound 0.01 µM) is 0.323; in test [1] (first compound 0.03162 µM), 0.294; in test [1] (first compound 0.1 µM), 0.341; in test [1] (first compound 0.3162 µM) it was 0.339; in test [1] (first compound 1 µM), 0.292; in test [2] (first compound 0.01 µM), 0.381. The relative viability in test [2] (first compound 0.03162 µM) turned out to be 0.483; in test [2] (first compound 0.1 µM) it was 0.505; in test [2] (first compound 0.3162 µM) it was 0.432; in test [2] (first compound 1 µM) it was 0.387; in test [3] (first compound 0.02 µM), 0.666; in test [3] (first compound 0.06325 µM), 0.808. In addition, the relative viability in test [3] (first compound 0.2 µM) was found to be 0.782; in test [3] (first compound 0.6325 µM) it was 0.548; in test [3] (first compound 2 µM), 0.69; in test [4] (first compound 0.2 µM), 1; in test [4] (first compound 0.6325 µM), 1.06; in test [4] (first compound 2 µM), 0.997. In addition, the results for the relative viability in test [4] (first compound 6.325 µM) and in test [4] (first compound 20 µM) were 0.996 and 0.947, respectively.
